Results as given in patent US20060166237A1, “Method of detecting reaction of DNA and DNA-binding protein” (OLYMPUS CORPORATION, priority 2003, published 2006).

Legend:
Format in all cases: cell-based
[1] = tested on: transcription factor NF-κB in HeLa cell; assay: Activation of NF-κB in HeLa cell nucleus by TNF-α and APDC stimulation, FCS readout (Experiment 7-2)
Method: (§1) Two hours after addition of APDC, a tumor necrosis factor TNF-α is added to stimulate HeLa cell for 30 minutes, from which a nucleus extract is prepared. A nucleus extract having a concentration of 5, 10 or 20 μg is prepared. Stimulation on a cell is performed in the following two cases.
(§2) (I) The case where stimulation with only a tumor necrosis factor TNF-α is performed for 30 minutes. A concentration of a tumor necrosis factor TNF-α is 0, 10, 25 or 50 ng/ml.
(§3) (II) The case where stimulation with a tumor necrosis factor TNF-α is performed for 30 minutes, two hours after addition of APDC. A concentration of APDC is 10, 100 or 200 μM relative to a 50 ng/ml of a tumor necrosis factor TNF-α.
[Experiment 7-2] Experiment of a reaction of a (fluorescently labeled) DNA having an […] sequence and a cell nucleus extract. The Experiment was performed using a cell nucleus extract which is extracted under the condition of a different concentration of an added tumor necrosis factor TNF-α and a different concentration of added APDC.
The following shown in Table 29 are used to perform a binding reaction experiment in the same way as Experiment 3-2.

[2] = tested on: transcription factor NF-κB in HeLa cell; assay: Activation of NF-κB in HeLa cell nucleus by TNF-α stimulation time, FCS readout (Experiment 6-2); settings: 50 ng/ml TNF-α, nucleus extract 20 μg, DNA 30, FIG. 19
Method: (§4) [Experiment 6-2] Experiment of a reaction of a (fluorescently labeled) DNA having an NF-κB-binding sequence and a cell nucleus extract. The Experiment was performed using a cell nucleus extract which is extracted under the condition of a different time length of stimulation with a tumor necrosis factor TNF-α.
In the same way as Experiment 6-1, 50 ng/ml of a tumor necrosis factor TNF-α was added to HeLa cell, and the HeLa cell was stimulated for 0, 15, 30, 60, 120 or 180 minutes. Then, a nucleus extract was prepared from each HeLa cell.
The following shown in Table 27 are used to perform a binding reaction experiment in the same way as Experiment 3-2.

[3] = tested on: transcription factor AP-1 in HeLa cell; assay: Activation of AP-1 in HeLa cell nucleus by TNF-α stimulation time, FCS readout (Experiment 6-1); settings: 50 ng/ml TNF-α, nucleus extract 20 μg, DNA 20, FIG. 18
Method: as §4, with “6-1]” for “6-2]”, “AP-1-binding” for “NF-κB-binding”
50 ng/ml of a tumor necrosis factor TNF-α was added to HeLa cell, and the HeLa cell was stimulated for 0, 15, 30, 60, 120 or 180 minutes. Then, a nucleus extract was prepared from each HeLa cell (for preparation method, see Example 3). A concentration of a nucleus extract was set to be 20 μg.
The following shown in Table 26 are used to perform a binding reaction experiment in the same way as Experiment 3-1.

[4] = tested on: transcription factor AP-1 in HeLa cell; assay: Activation of AP-1 in HeLa cell nucleus by TNF-α and APDC stimulation, FCS readout (Experiment 7-1)
Method: as §1, §2, §3
[Experiment 7-1] Experiment of a reaction of a (fluorescently labeled) DNA having an AP-1-binding sequence and a cell nucleus extract. The Experiment was performed using a cell nucleus extract which is extracted under the condition of a different concentration of an added tumor necrosis factor TNF-α and a different concentration of an added APDC.
The following shown in Table 28 are used to perform a binding reaction experiment in the same way as Experiment 3-1.

[5] = HeLa cell, APDC 10, 100 or 200 μM with 50 ng/ml TNF-α

Row | Molecule | activation of transcription factor NF-κB in cell nucleus extract ([1]; stimulation with only TNF-α 50 ng/ml for 30 minutes, FIG. 21) | stimulation time giving greatest translational diffusion time (NF-κB sufficiently activated) [2] | stimulation time giving greatest translational diffusion time (AP-1 sufficiently activated) [3] | activation of transcription factor AP-1 in cell nucleus extract ([4]; APDC 100 μM and 200 μM, added 2 hours before 50 ng/ml TNF-α for 30 minutes, FIG. 20) | effect of APDC on activation of transcription factor AP-1 by TNF-α [4, 5] | effect of APDC on activation of transcription factor NF-κB by TNF-α [1, 5]
1 | tumor necrosis factor TNF-α | most activated | 15 min | 30 min | – | – | –
2 | N.S=C(S)N1CCCC1 [APDC, Ammonium pyrrolidinedithiocarbamate] | – | – | – | most activated | promotes activation of a transcription factor AP-1 by a tumor necrosis factor TNF-α | suppresses activation of a transcription factor NF-κB by a tumor necrosis factor TNF-α
